# Source: patent US8299100B2, “Potent and selective neuronal nitric oxide synthase inhibitors with improved membrane permeability” (Northwestern University, priority 2009, dated 2012)
# Like-named read-outs stand apart in the source and are kept apart here.
# Tests used:
# [1] = target: bovine eNOS (Bos taurus, UniProt P29473); test: NOS hemoglobin capture assay, purified recombinant enzyme (eNOS); conditions: for selectivity n/e: ratio of Ki (eNOS) to Ki (nNOS)
# Method: (§1) The three isozymes were recombinant enzymes, which were overexpressed (in E. coli) and isolated as reported. The formation of nitric oxide was measured using a hemoglobin capture assay described previously.
# (§2) The three isozymes were recombinant enzymes, which were overexpressed (in E. coli) and isolated as reported. The formation of nitric oxide was measured using a hemoglobin capture assay described previously. […] The corresponding Ki values of inhibitors were calculated from the IC50 values using equation 1 with known Km values, as above.
# [2] = target: murine macrophage iNOS (Mus musculus, UniProt P29477); test: NOS hemoglobin capture assay, purified recombinant enzyme (iNOS); conditions: for selectivity n/i: ratio of Ki (iNOS) to Ki (nNOS)
# Method: as §1, §2
# [3] = target: rat nNOS (Rattus norvegicus, UniProt P29476); test: NOS hemoglobin capture assay, purified recombinant enzyme (nNOS)
# Method: as §1, §2
# [4] = target: nNOS (Rattus norvegicus, UniProt P29476); test: cell-based assay of inhibitor potency (membrane permeability); conditions: for IC50: Table 3, cell-based assay; for increase in cell membrane permeation: relative to 1, from IC50/IC50(cell)
# From the text: This assay can provide valuable data about membrane permeability.
# [5] = read-out: Ki nNOS, Table 4, Ki calculated from measured IC50, 10 μM L-arginine
SMILES,Ki [1],Ki [2],Ki [3],selectivity n/e ([1]; Table 4),selectivity n/i ([2]; Table 4),IC50 [4],increase in cell membrane permeation [4],further results
Cc1cc(N)nc(C[C@H]2CNC[C@H]2OCCNCC(F)(F)c2cccc(F)c2)c1 [Compound 2da],110 µM,130 µM,0.39 µM,–,–,–,–,loss of potency (nNOS) ([3]; compared to racemic 2d): five-fold less potent
Cc1cc(N)nc(C[C@@H]2CNC[C@@H]2OCCNCC(F)(F)c2ccc(F)cc2)c1 [Compound 2dc],–,–,–,190,1200,–,–,"Ki ([1]; read-out: Ki eNOS, Table 4, Ki calculated from measured IC50, 10 μM L-arginine): 31 µM; Ki ([2]; read-out: Ki iNOS, Table 4, Ki calculated from measured IC50, 10 μM L-arginine): 190 µM; loss of potency (nNOS) ([3]; compared to 2db): 4.5 fold; Ki [3, 5]: 0.16 µM"
"Cc1cc(N)nc(CC2CNCC2OCCNC2CC2c2cccc(F)c2)c1 [Compound 2b, 6-(((3S,4S)/(3R,4R)-4-(2-(2-(3-Fluorophenyl)cyclopropylamino)ethoxy)pyrrolidin-3-yl)methyl)-4-methylpyridin-2-amine]",68 µM,11 µM,0.046 µM,–,–,9 µM,2.4 fold,"IC50/IC50(cell) × 10^−2 ([4]; ratio of purified nNOS IC50 to cell-based IC50, indicates relative membrane permeability): 4.4 × 10^−2; selectivity n/e ([1]; Table 2): 1500; selectivity n/i ([2]; Table 2): 220; IC50 [3]: 0.4 µM"
Cc1cc(N)nc(C[C@@H]2CNC[C@@H]2OCCNCC(F)(F)c2cccc(F)c2)c1 [Compound 2db],140 µM,51 µM,0.036 µM,–,–,–,–,lower Ki (nNOS) ([3]; 2db compared to 2da): 10 fold
"Cc1cc(N)nc(CC2CNCC2OCCNCC(F)(F)c2cccc(F)c2)c1 [Compound 2d, 6-(((3S,4S)/(3R,4R)-4-(2-(2,2-Difluoro-2-(3-fluorophenypethylamino)ethoxy)pyrrolidin-3-yemethyl)-4-methylpyridin-2-amine]",–,–,–,–,–,19 µM,2.0 fold,"IC50 ([3]; Table 3, purified enzyme assay (nNOS)): 0.7 µM; Ki ([3]; read-out: Ki nNOS, Table 2, Ki calculated from measured IC50, 10 μM L-arginine): 0.08 µM; Ki [3, 5]: 0.08 µM; drop in potency (nNOS) ([3]; relative to 2c): 2.2 fold"
"Cc1cc(N)nc(CC2CNCC2OCCNCC(F)c2cccc(F)c2)c1 [Compound 2c, 6-(((3S,4S)/(3R,4R)-4-(2-(2-Fluoro-2-(3-fluorophenyl)propylamino)ethoxy)pyrrolidin-3-yl)methyl)-4-methylpyridin-2-amine]",–,–,–,–,–,10 µM,1.7 fold,–
Cc1cc(N)nc(C[C@@H]2CNC[C@@H]2OCCNCC(F)(F)c2ccccc2)c1 [Compound 2dd],–,85 µM,0.085 µM,–,–,–,–,–
CC1CC(N)=NC(C[C@@H]2CNC[C@@H]2OCCNCC(F)(F)c2ccccc2)C1 (stereo partly drawn) [Compound 2e],130 µM,26 µM,0.17 µM,770,150,–,–,better binding to iNOS ([2]; compared to 2dd): more than 3 fold; drop in potency against nNOS ([3]; compared to 2dd): 2 fold
Cc1cc(N)nc(C[C@H]2CNC[C@H]2OCCNCC(F)(F)C2CCCCN2)c1 (stereo partly drawn) [Compound 2f],64 µM,450 µM,2.7 µM,24,170,–,–,–
